Reference: patent US4372975A, “Substituted 2-benzoyl-4-chloroglycinanilide derivatives, a process for their production, and their use as medicaments” (Pierre Fabre SA, priority 1977, dated 1983)
Structures can show the parent of a compound that is named as a salt. Where two headings read alike, the source gives them in different places.

Key:
Solubility = format: physicochemical; conditions: for solubility / solubility in water (in words): in water; for solubility in ethanol: in ethanol at 95° GL
[1] = tested on: pentamethylene tetrazole-induced tonic spasms; test: Anti-pentamethylene tetrazole activity; format: in vivo, male mice of the Swiss strain; conditions: for ED50: Mus musculus; for Activity antipentetrazol (VO), at 10 mg: 10 mg (mg/kg)
Procedure: This test is carried out on a group of 10 male mice of the Swiss strain. 15 minutes after the subcutaneous injection of 125 mg/kg of pentamethylene tetrazole, the mice have tonic spasms of which the outcome is fatal.
For the test, the compound is administered orally 60 minutes before the injection of pentamethylene tetrazole. The animals are observed for 2 hours after administration of the pentamethylene tetrazole. In some particular cases, the tests were confirmed by intraperitoneal administration. The results are expressed by the effective dose DE50 (Goodman et Col.--J. Pharmacol. 108, 1953).
As Japanese Pat. No. 148,340 has been cited in copending application Ser. No. 916,651, filed June 19, 1978, comparisons between compounds of this closest prior art and the compounds of the invention were undertaken in the form of a controlled study.
The major consideration surrounded the similarity in the compounds, particularly in the substitution at the R position. The study compared ten compounds of the invention, which differed from the Japanese prior art only in that the compounds of the invention are alkylated at the R position while the prior art compounds are all hydrogenated at that position.
The compounds were tested for anti-pentamethylene tetrazole activity, the test described on p.

[2] = Toxicity test (LD50, Miller and Tainter); conditions: mouse, in vivo, mice
Procedure: The compounds according to the invention were subjected to toxicity tests. It was tested in batches of 10 mice by oral, intraperitoneal and, in some cases, intravenous administration and was calculated in accordance with Miller and Tainter's method (Proc. Soc. exper. Biol. Med., 1944, 57, 261).

[3] = oral, 60 min before 125 mg/kg s.c. pentamethylene tetrazole, male Swiss mice, read-out: anti-pentamethylene tetrazole activity DE50 P.O.
[4] = ip, intraperitoneal, read-out: DL50 I.P.
[5] = po, prior art comparison, VO, dose giving 50% inhibition, read-out: Activity antipentetrazol (VO), 50% inhibition

Compound	solubility (Solubility) [mg/mL]	ED50 [1, 3] [mg/kg]	LD50 [2, 4] [mg/kg]	LD50 ([2]; oral, read-out: DL50 oral) [mg/kg]	further results
CN(C(=O)CNC1CC1)c1ccc(Cl)cc1C(=O)c1ccccc1 [Example 10, N-Methyl-N'-cyclopropyl-(2-benzoyl-4-chloro)-glycinanilide hydrochloride]	13	0.8	–	–	–
CCC(CO)(CO)NCC(=O)N(C)c1ccc(Cl)cc1C(=O)c1ccccc1 [Example 13, N-Methyl-N'-(1'-ethyl-1'-hydroxymethyl-2'-hydroxyethyl)-(2-benzoyl-4-chloro)-glycinanilide hydrochloride]	500	–	–	–	–
CN(CCO)CC(=O)Nc1ccc(Cl)cc1C(=O)c1ccccc1 [R = H, R1 = CH3, R2 = CH2CH2 OH, reference compound]	–	–	–	–	Activity antipentetrazol (VO), at 10 mg ([1]; prior art comparison, VO): inactive
COCCNCC(=O)N(C)c1ccc(Cl)cc1C(=O)c1ccccc1 [Example 5, N-Methyl-N'-(2'-methoxyethyl)-(2-benzoyl-4-chloro)-glycinanilide hydrochloride]	500	2.6	300	750	–
CN(C(=O)CN(C)C1CCCCC1)c1ccc(Cl)cc1C(=O)c1ccccc1 [Example 20, N,N'-Dimethyl-N'-cyclohexyl-(2-benzoyl-4-chloro)-glycinanilide hydrochloride]	20	1.9	> 500	> 1000	–
C#CC(C)(C)NCC(=O)N(C)c1ccc(Cl)cc1C(=O)c1ccccc1 [drawing 31]	–	–	–	–	ED50 [1, 5]: 2.3 mg/kg
C#CC(C)(C)NCC(=O)N(C)c1ccc(Cl)cc1C(=O)c1ccccc1 [Example 2, N-Methyl-N'-1,1-dimethyl-propargyl-(2-benzoyl-4-chloro)-glycinanilide hydrochloride]	10	1.5	450	> 1000	–
CN(C(=O)CN(CCO)CCO)c1ccc(Cl)cc1C(=O)c1ccccc1 [Example 16, N-Methyl-N',N'-bis-(2'-hydroxyethyl)-(2-benzoyl-4-chloro)-glycinanilide hydrochloride]	50	3.4	> 500	> 1000	–
CNC1=Nc2ccc(Cl)cc2C(c2ccccc2)=[N+]([O-])C1 [chlordiazepoxide, reference compound]	–	5	–	–	–
C=CCNCC(=O)Nc1ccc(Cl)cc1C(=O)c1ccccc1 [R = H, R1 = H, R2 = CH2CHCH2, reference compound]	–	–	–	–	Activity antipentetrazol (VO), at 10 mg ([1]; prior art comparison, VO): inactive
C#CC(C)(C)NCC(=O)Nc1ccc(Cl)cc1C(=O)c1ccccc1 [reference compound]	–	–	–	–	Activity antipentetrazol (VO), at 10 mg ([1]; prior art comparison, VO): inactive
CNCC(=O)N(C)c1ccc(Cl)cc1C(=O)c1ccccc1 [Example 3, N,N'-Dimethyl-(2-benzoyl-4-chloro)-glycinanilide hydrochloride]	150	–	–	–	ED50 [1, 5]: 1.7 mg/kg
CN(C(=O)CNCc1ccccc1)c1ccc(Cl)cc1C(=O)c1ccccc1 [Example 6, N-Methyl-N'-benzyl-(2-benzoyl-4-chloro)-glycinanilide hydrochloride]	25	–	–	–	–
CN(C)CC(=O)N(C)c1ccc(Cl)cc1C(=O)c1ccccc1 [Example 4, N,N',N'-Trimethyl-(2-benzoyl-4-chloro)-glycinanilide]	–	–	–	–	solubility in dimethyl formamide (Solubility): 20%; solubility in ethanol (Solubility): 20%; solubility in water (in words) (Solubility): insoluble; ED50 [1, 5]: 1.7 mg/kg
CC(CNCC(=O)Nc1ccc(Cl)cc1C(=O)c1ccccc1)c1ccccc1 (centres unmarked) [reference compound]	–	–	–	–	Activity antipentetrazol (VO), at 10 mg ([1]; prior art comparison, VO): inactive
CC(CNCC(=O)N(C)c1ccc(Cl)cc1C(=O)c1ccccc1)c1ccccc1 (centres unmarked)	–	–	–	–	ED50 [1, 5]: 2.9 mg/kg

Compound	solubility (Solubility) [mg/mL]	ED50 [1, 3] [mg/kg]	LD50 [2, 4] [mg/kg]	LD50 ([2]; oral, read-out: DL50 oral) [mg/kg]	further results
CN1C(=O)CN=C(c2ccccc2)c2cc(Cl)ccc21 [diazepam, reference compound]	–	1	–	–	–
CNCC(=O)Nc1ccc(Cl)cc1C(=O)c1ccccc1 [R = H, R1 = H, R2 = CH3, reference compound]	–	–	–	–	Activity antipentetrazol (VO), at 10 mg ([1]; prior art comparison, VO): inactive
CN(C(=O)CN1CCCCC1)c1ccc(Cl)cc1C(=O)c1ccccc1 [Example 17, N-Methyl-2-piperidino-(2'-benzoyl-4'-chloro)-acetanilide hydrochloride]	500	–	–	–	–
C#CC(CC)(CC)NCC(=O)N(C)c1ccc(Cl)cc1C(=O)c1ccccc1 [Example 8, N-Methyl-N'-(1',1'-diethyl-propargyl)-(2-benzoyl-4-chloro)-glycinanilide hydrochloride]	–	4.1	400	1000	solubility in dimethyl formamide (Solubility): 1%; solubility in ethanol (Solubility): 1%; solubility in water (in words) (Solubility): insoluble
CN1CCN(CC(=O)N(C)c2ccc(Cl)cc2C(=O)c2ccccc2)CC1 [Example 22, N-Methyl-4'-methyl-2-piperazino-(2-benzoyl-4-chloro)-acetanilide]	–	–	500	1000	solubility in dimethyl formamide (Solubility): 5%; solubility in ethanol (Solubility): 5%; solubility in water (in words) (Solubility): insoluble
COCCNCC(=O)Nc1ccc(Cl)cc1C(=O)c1ccccc1 [R = H, R1 = H, R2 = CH2CH2OCH3, reference compound]	–	–	–	–	Activity antipentetrazol (VO), at 10 mg ([1]; prior art comparison, VO): inactive
CN(C(=O)CNC(C)(C)CO)c1ccc(Cl)cc1C(=O)c1ccccc1 [Example 12, N-Methyl-N'-(1',1'-dimethyl-2'-hydroxyethyl)-(2-benzoyl-4-chloro)-glycinanilide]	–	–	–	–	solubility in dimethyl formamide (Solubility): 25%; solubility in ethanol (Solubility): 10%; solubility in water (in words) (Solubility): insoluble
CN(C)CC(=O)Nc1ccc(Cl)cc1C(=O)c1ccccc1 [R = H, R1 = CH3, R2 = CH3, reference compound]	–	–	–	–	Activity antipentetrazol (VO), at 10 mg ([1]; prior art comparison, VO): inactive
O=C(CNCc1ccccc1)Nc1ccc(Cl)cc1C(=O)c1ccccc1 [reference compound]	–	–	–	–	Activity antipentetrazol (VO), at 10 mg ([1]; prior art comparison, VO): inactive
CC(C)N(CC(=O)N(C)c1ccc(Cl)cc1C(=O)c1ccccc1)C1CCCCC1 [Example 21, N-Methyl-N'-isopropyl-N'-cyclohexyl-(2-benzoyl-4-chloro)glycinanilide hydrochloride]	50	2.2	500	1000	–
CN(C(=O)Cn1ccnc1)c1ccc(Cl)cc1C(=O)c1ccccc1 [Example 23, N-Methyl-2-imidazolyl-(2-benzoyl-4-chloro)-acetanilide]	–	–	500	1000	solubility in dimethyl formamide (Solubility): 20%; solubility in ethanol (Solubility): 10%; solubility in water (in words) (Solubility): insoluble
C=CCNCC(=O)N(C)c1ccc(Cl)cc1C(=O)c1ccccc1 [Example 7, N-methyl-N'-allyl-(2-benzoyl-4-chloro)-glycinanilide hydrochloride]	30	1.9	500	> 1000	–
CCN(CCO)CC(=O)N(C)c1ccc(Cl)cc1C(=O)c1ccccc1 [Example 15, N-Methyl-N'-ethyl-N'-(2'-hydroxyethyl)-(2-benzoyl-4-chloro)-glycinanilide]	–	2.9	150	550	solubility in dimethyl formamide (Solubility): 30%; solubility in ethanol (Solubility): 10%; solubility in water (in words) (Solubility): insoluble
CN(C(=O)CNCc1ccccc1)c1ccc(Cl)cc1C(=O)c1ccccc1 [drawing 35]	–	–	–	–	ED50 [1, 5]: 3 mg/kg
CC(C)NCC(=O)N(C)c1ccc(Cl)cc1C(=O)c1ccccc1 [Example 1, N-Isopropyl-N'-methyl-(2-benzoyl-4-chloro)-glycinanilide hydrochloride]	10	–	–	–	–
